Test results published in patent US5688807A, “Method for treating 5HT2B receptor related conditions” (Eli Lilly and Company, priority 1995, dated 1997).
Counter-ions that a name gives are not always drawn.

What follows are compounds tested against 5-HT2B receptor (rat stomach fundus) (Rattus norvegicus, UniProt P30994) (assay: not given). Conditions: rat stomach fundus; vs serotonin; ± standard error.
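For 5-HT2B (Fundus) -log KB in this document: isometric contraction of isolated male Wistar rat stomach fundus strips, serotonin concentration-response curves after antagonist incubation, KB from dose ratio of agonist potency versus control curve.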
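For Ki Rat 5-HT2B in this document: displacement of [3H]5-HT from membranes of suspension cells carrying cloned rat 5-HT2B receptor, incubated 15 min at 37 °C or 2 h at 0 °C, filter-bound radioactivity counted by scintillation.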
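For Ki in this document: displacement of [3H]5-HT from membranes of suspension cells carrying cloned rat 5-HT2B receptor, incubated 15 min at 37 °C or 2 h at 0 °C, filter-bound radioactivity counted by scintillation.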

Sequence of 5-HT2B receptor (rat stomach fundus) (P30994 whole entry): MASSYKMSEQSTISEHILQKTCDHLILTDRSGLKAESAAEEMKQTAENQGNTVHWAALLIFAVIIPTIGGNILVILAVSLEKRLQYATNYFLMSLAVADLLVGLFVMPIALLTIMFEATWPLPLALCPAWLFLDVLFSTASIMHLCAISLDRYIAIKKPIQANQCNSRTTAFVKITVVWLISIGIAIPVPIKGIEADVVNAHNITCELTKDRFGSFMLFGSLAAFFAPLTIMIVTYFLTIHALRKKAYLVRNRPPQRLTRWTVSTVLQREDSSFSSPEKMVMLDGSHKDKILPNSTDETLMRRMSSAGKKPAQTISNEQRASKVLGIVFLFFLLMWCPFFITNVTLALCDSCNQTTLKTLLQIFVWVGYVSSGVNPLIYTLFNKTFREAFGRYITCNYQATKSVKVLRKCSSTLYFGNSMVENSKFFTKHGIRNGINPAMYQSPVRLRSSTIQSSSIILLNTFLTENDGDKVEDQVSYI

Which “5-HT2B (Fundus) -log KB” value does the source give for COc1ccc(CC2c3[nH]c4ccc(C(C)C)cc4c3CCN2C)cc1OC (stereo not drawn) [Example 45, 2-methyl-6-(1-methylethyl)-1,2,3,4-tetrahydro-1-[(3,4-dimethoxyphenyl)methyl]-9H-pyrido-[3,4b]indole maleate] here?
Its value is 8.14 ± 0.32.

Same assay, conditions: rat stomach fundus; vs serotonin; ± standard error; read-out: 5-HT2B (Fundus) -log KB (converted)

Brc1ccc2[nH]c3c(c2c1)CCNC3Cc1cccc2ccccc12 (racemic) [Example 55, (±) 6-bromo-1-(1-naphthalenylmethyl)-1,2,3,4-tetrahydro-9H-pyrido [3,4-b]indole (Z)-2-butenedioate] was tested. Which Kb did it give?
Its Kb is 1.12 nM.

How did the Kb turn out when CC(C)c1ccc2[nH]c3c(c2c1)CCNC3C(C)c1cccc2ccccc12 (racemic) [Example 50, hydrochloride] was run?
Its Kb is 3.98 nM.

How did the Kb turn out when Cc1ccc2c(c1)c1c(n2C)C(Cc2cccc3ccccc23)NCC1 (racemic) [Example 63, (+/-) 6,9-dimethyl-1,2,3,4-tetrahydro-1-(1-naphthalenylmethyl)-9H-pyrido [3,4-b] indole hydrochloride] was run?
Its Kb is 0.813 nM.

For COc1ccc(CC2NCCc3c2[nH]c2ccc(C(C)C)cc32)cc1OC (stereo not drawn) [Example 13, 6-(1-methylethyl)-1,2,3,4-tetrahydro-1-[(3,4-dimethoxyphenyl)methyl]-9H-pyrido[3,4b]indole], which Kb is on record?
The Kb was 3.16 nM.

How did the Kb turn out when COc1cc(CC2NCCc3c2[nH]c2ccc(C)cc32)cc([N+](=O)[O-])c1OC (stereo not drawn) [Example 28, 6-methyl-1-[(3,4-dimethoxy-5-nitrophenyl)-methyl]-1,2,3,4-tetrahydro-9H-pyrido[3,4-b]indole hydrochloride] was run?
Its Kb is 2.82 nM.

Which Kb does the source give for COc1ccc(CC2c3[nH]c4ccc(C)cc4c3CCN2C)c(Cl)c1OC (stereo not drawn) [Example 44, 2,6-dimethyl-1-[(2-chloro-3,4-dimethoxyphenyl)methyl]-1,2,3,4-tetrahydro-9H-pyrido[3,4-b]indole hydrochloride] here?
The Kb was 3.98 nM.

COc1ccc(CC2NCCc3c2[nH]c2ccc(C)cc32)cc1F (stereo not drawn) [Example 34, 6-methyl-1-[(3-fluoro-4-methoxyphenyl)-methyl]-1,2,3,4-tetrahydro-9H-pyrido[3,4-b]indole hydrochloride] was tested. Which Kb did it give?
The Kb was 0.38 nM.

Which Kb does the source give for COc1ccc(CC2NCCc3c2[nH]c2c(C)ccc(C)c32)cc1OC (stereo not drawn) [Example 12, 5,8-dimethyl-1,2,3,4-tetrahydro-1-[(3,4-dimethoxyphenyl)methyl]-9H-pyrido[3,4b]indole hydrochloride] here?
Its Kb is 0.513 nM.

COc1ccc(CC2NCCc3c2[nH]c2cc(C)cc(C)c32)cc1OC (stereo not drawn) [Example 15, 5,7-dimethyl-1,2,3,4-tetrahydro-1-[(3,4-dimethoxyphenyl)methyl]-9H-pyrido[3,4b]indole hydrochloride] was tested. Which Kb did it give?
Its Kb is 0.457 nM.

For COc1ccc(CC2NCCc3c2[nH]c2c(Br)cc(C)cc32)cc1OC (stereo not drawn) [Example 4, 6-methyl-8-bromo-1-[(3,4-dimethoxyphenyl)-methyl]-1,2,3,4-tetrahydro-9H-pyrido[3,4-b]indole hydrochloride], which Kb is on record?
The Kb was 1.2 nM.

For COc1ccc(CC2NCCc3c2[nH]c2ccc(C4CCCCC4)cc32)cc1OC (stereo not drawn) [Example 11, 6-cyclohexyl-1-[(3,4-dimethoxyphenyl)-methyl]-1,2,3,4-tetrahydro-9H-pyrido[3,4-b]indole hydrochloride], which Kb is on record?
Its Kb is greater than 30.2 nM.

c1ccc2c(CC3NCCc4c3[nH]c3ccc(C5CCCCC5)cc43)cccc2c1 (racemic) [Example 57, (+/-) 6-cyclohexyl-1-(1-naphthalenylmethyl)-1,2,3,4-tetrahydro-9H-pyrido [3,4-b] indole hydrochloride] was tested. Which Kb did it give?
Its Kb is greater than 10 nM.

Which Kb does the source give for Cc1ccc2[nH]c3c(c2c1F)CCNC3Cc1cccc2ccccc12 (racemic) [Example 59, (+/-) 5-fluoro-6-methyl-1-(1-naphthalenylmethyl)-1,2,3,4-tetrahydro-9H-pyrido [3,4-b] indole (Z)-2-butenedioate] here?
The Kb was 0.204 nM.

Which Kb does the source give for COc1ccc(CC2NCCc3c2[nH]c2c(C)cc(C)cc32)cc1OC (stereo not drawn) [Example 14, 6,8-dimethyl-1,2,3,4-tetrahydro-1-[(3,4-dimethoxyphenyl)methyl]-9H-pyrido[3,4b]indole hydrochloride] here?
Its Kb is 0.245 nM.

With CCc1ccc2[nH]c3c(c2c1)CCNC3C(C)c1ccc(OC)c(OC)c1 (racemic) [Example 42, (±) 6-ethyl-1-[(3,4-dimethoxyphenyl)-1-ethyl]-1,2,3,4-tetrahydro-9H-pyrido[3,4-b]indole (Z)-2-butenedioate] as the compound, how does the Kb read?
Its Kb is 0.275 nM.

Cc1ccc2[nH]c3c(c2c1)CCNC3CC1CCCCC1 (stereo not drawn) [Example 39, 6-methyl-1-(cyclohexylmethyl)-1,2,3,4-tetrahydro-9H-pyrido[3,4-b]indole hydrochloride] was tested. Which Kb did it give?
The Kb was 4.79 nM.

With COc1ccc(CC2NCCc3c2[nH]c2ccc(C(C)(C)C)cc32)cc1OC (stereo not drawn) [Example 8, 6-(1,1-dimethylethyl)-1-[(3,4-dimethoxyphenyl)methyl]1,2,3,4-tetrahydro-1-9H-pyrido-[3,4b]indole hydrochloride] as the compound, how does the Kb read?
The Kb was 3.55 nM.

COc1ccc(CC2NCCc3c2[nH]c2c(F)cc(F)cc32)cc1OC (stereo not drawn) [Example 6, 6,8-difluoro-1-[(3,4-dimethoxyphenyl)-methyl]-1,2,3,4-tetrahydro-9H-pyrido[3,4-b]indole] was tested. Which Kb did it give?
Its Kb is 0.251 nM.

How did the Kb turn out when COc1ccc(CC2NCCc3c2[nH]c2c(Br)cc(Br)cc32)cc1OC (stereo not drawn) [Example 3, 6,8-dibromo-1-[(3,4-dimethoxyphenyl)methyl]-1,2,3,4-tetrahydro-9H-pyrido[3,4-b]indole] was run?
Its Kb is 1.66 nM.

What follows are compounds tested against rat 5-HT2B receptor (Rattus norvegicus, UniProt P30994) (assay: biochemical). Conditions: Ki Rat 5-HT2B, [3H]Serotonin; 5-HT2B cells; AVG.
Sequence of rat 5-HT2B receptor (P30994 whole entry): as above
Assay type: binding

COc1ccc2[nH]c3c(c2c1)CCNC3 was tested. Which Ki did it give?
The Ki was 405 nM.

Which Ki does the source give for Fc1cccc2c3c([nH]c12)CNCC3 here?
The Ki was 25.6 nM.

For CN1CC(C(=O)NCc2cccnc2)CC2c3cccc4c3c(cn4C)CC21 (stereo not drawn), which Ki is on record?
Its Ki is 15.5 nM.

Which Ki does the source give for CN1CC(C(=O)NCCc2ccccn2)CC2c3cccc4c3c(cn4C)CC21 (stereo not drawn) here?
The Ki was 24.5 nM.

For NCCc1c[nH]c2cc(O)c(O)cc12, which Ki is on record?
The Ki was 41.6 nM.

For Clc1ccc2[nH]c3c(c2c1)CCNC3 [drawing 166], which Ki is on record?
Its Ki is 70.7 nM.

Which Ki does the source give for Brc1ccc2[nH]c3c(c2c1)CCNC3 [drawing 170] here?
Its Ki is 62.1 nM.

How did the Ki turn out when Cc1cc(Br)c2[nH]cc(CCN)c2c1 was run?
Its Ki is 37.6 nM.

With Cc1ccc2c(CCN)c[nH]c2c1 as the compound, how does the Ki read?
Its Ki is 102 nM.

With CCC(CO)NC(=O)C1C=C2c3cccc4c3c(cn4C)CC2N(C)C1 (stereo not drawn) as the compound, how does the Ki read?
The Ki was 6.28 nM.

With NCCc1c[nH]c2c(O)cc(O)cc12 as the compound, how does the Ki read?
Its Ki is 4570 nM.

Which Ki does the source give for CCCN(CCC)CCc1c[nH]c2ccc(OC)cc12 here?
The Ki was 169 nM.

CC(N)Cc1c[nH]c2ccc(F)cc12 (stereo not drawn) was tested. Which Ki did it give?
Its Ki is 6.52 nM.

Which Ki does the source give for CN1CC(C(=O)NCc2cccnc2)CC2c3cccc4[nH]cc(c34)CC21 (stereo not drawn) here?
Its Ki is 35.1 nM.

With NCCc1c[nH]c2c(F)cc(F)cc12 as the compound, how does the Ki read?
The Ki was 15.4 nM.

With c1ccc2c3c([nH]c2c1)CNCC3 as the compound, how does the Ki read?
The Ki was 379 nM.

With CC(N)Cc1c[nH]c2cc(F)ccc12 (stereo not drawn) as the compound, how does the Ki read?
The Ki was 49.9 nM.

For CCN(C)CCc1c[nH]c2ccc(OCc3ccccc3)cc12, which Ki is on record?
The Ki was 84.5 nM.

How did the Ki turn out when COC(=O)c1ccc2[nH]cc(CCN)c2c1 was run?
The Ki was 49.3 nM.

For NCCc1c[nH]c2ccc(OCc3ccccc3)cc12, which Ki is on record?
Its Ki is 30.2 nM.

With Cc1c(Br)ccc2c(CCN)c[nH]c12 as the compound, how does the Ki read?
The Ki was 20.8 nM.

How did the Ki turn out when CN(C)CCc1c[nH]c2ccc(OCc3ccccc3)cc12 was run?
Its Ki is 38.5 nM.

With CCCN(CCC)CCc1c[nH]c2ccc(O)cc12 as the compound, how does the Ki read?
The Ki was 61 nM.

How did the Ki turn out when CCCNCCc1c[nH]c2ccc(Br)cc12 was run?
The Ki was 131 nM.

NCCc1c[nH]c2c(F)ccc(F)c12 was tested. Which Ki did it give?
Its Ki is 337 nM.

For COc1ccc2cccc(N3CCNCC3)c2c1, which Ki is on record?
Its Ki is 3.58 nM.

For NCCc1c[nH]c2cc(F)ccc12, which Ki is on record?
The Ki was 40.6 nM.

How did the Ki turn out when NCCc1c[nH]c2c(F)cccc12 was run?
The Ki was 62.4 nM.

How did the Ki turn out when NCCc1c[nH]c2c(Br)cccc12 was run?
The Ki was 32 nM.

Same assay, conditions: [3H]Serotonin; 5-HT2B cells; AVG; read-out: Ki Rat 5-HT2B

NCCc1c[nH]c2ccccc12 was tested. Which Ki did it give?
The Ki was 113 nM.

Which Ki does the source give for CCCc1ccc2[nH]c3c(c2c1)CCNC3Cc1ccc(OC)c(OC)c1 (stereo not drawn) here?
Its Ki is 28.4 nM.

How did the Ki turn out when NCCc1c[nH]c2ccc(F)cc12 was run?
Its Ki is 5.65 nM.

Cc1ccc2c3c([nH]c2c1)CNCC3 was tested. Which Ki did it give?
The Ki was 78.5 nM.

With CCCCC(=O)c1cccc2c1CC(N(C)C)CC2 (stereo not drawn) as the compound, how does the Ki read?
The Ki was 936 nM.

For Cc1ccc2[nH]c3c(c2c1F)CCNC3Cc1cccc2ccccc12 (stereo not drawn), which Ki is on record?
The Ki was 4.38 nM.

CCCN(CCC)C1CCc2cccc(O)c2C1 (stereo not drawn) was tested. Which Ki did it give?
The Ki was 4120 nM.

With Fc1ccc2[nH]c3c(c2c1)CCNC3 as the compound, how does the Ki read?
Its Ki is 322 nM.

How did the Ki turn out when NCCc1c[nH]c2c1ccc1ccccc12 was run?
The Ki was 155 nM.

Cc1cccc2c3c([nH]c12)CNCC3 was tested. Which Ki did it give?
Its Ki is 60.1 nM.

How did the Ki turn out when CC(O)C(C)OC(=O)C1CC2c3cccc4c3c(cn4C(C)C)CC2N(C)C1 (stereo not drawn) was run?
Its Ki is 6.87 nM.

Which Ki does the source give for COc1cc(CC2NCCc3c2[nH]c2ccc(C)cc32)cc(I)c1OC (stereo not drawn) [drawing 153] here?
The Ki was 4.82 nM.

CCCC(=O)c1cccc2c1CC(NC)CC2 (stereo not drawn) was tested. Which Ki did it give?
The Ki was 1500 nM.

With CN(C)C1CCc2cccc(C(=O)c3ccccc3)c2C1 (stereo not drawn) as the compound, how does the Ki read?
The Ki was 1750 nM.

For COc1ccc(C(C)(C)C2NCCc3c2[nH]c2ccccc32)cc1OC (stereo not drawn), which Ki is on record?
Its Ki is 220 nM.

c1ccc(COc2cccc3c4c([nH]c23)CNCC4)cc1 was tested. Which Ki did it give?
The Ki was 5650 nM.

How did the Ki turn out when CC(C)n1cc(CCN)c2cc(Br)ccc21 was run?
Its Ki is 475 nM.

How did the Ki turn out when COc1ccc(CC2NCCc3c2[nH]c2ccc(-c4ccccc4)cc32)cc1OC (stereo not drawn) was run?
The Ki was 229 nM.

With COc1ccc(CC2NCCc3c2[nH]c2ccc(C4CCCCC4)cc32)cc1OC (stereo not drawn) [drawing 149] as the compound, how does the Ki read?
The Ki was 1460 nM.

With CC(O)C(C)OC(=O)C1CC2c3cccc4[nH]cc(c34)CC2N(C)C1 (stereo not drawn) as the compound, how does the Ki read?
The Ki was 12.2 nM.

For Cc1[nH]c2ccc(O)cc2c1CCN, which Ki is on record?
The Ki was 284 nM.

With CC(C)(C)c1ccc2[nH]c3c(c2c1)CCNC3Cc1cccc2ccccc12 (stereo not drawn) as the compound, how does the Ki read?
The Ki was 44.9 nM.

For CCCC(=O)c1cccc2c1CC(N(C)C)CC2 (stereo not drawn), which Ki is on record?
Its Ki is 862 nM.

How did the Ki turn out when CC(C)c1ccc2[nH]c3c(c2c1)CCNC3C(C)c1cccc2ccccc12 (stereo not drawn) was run?
Its Ki is 14.2 nM.

For NCCc1c[nH]c2ccc(Cl)cc12, which Ki is on record?
Its Ki is 6.21 nM.

Cc1ccc2[nH]cc(CCN)c2c1 was tested. Which Ki did it give?
The Ki was 32.8 nM.

How did the Ki turn out when COc1ccc(CC2NCCc3c2[nH]c2c(Br)c(C)ccc32)c(OC)c1OC (stereo not drawn) was run?
The Ki was 8.77 nM.

Which Ki does the source give for CN(C)C1CCc2cccc(C(=O)c3ccccc3F)c2C1 (stereo not drawn) here?
The Ki was 3020 nM.

With COc1ccc(CC2NCCc3c2[nH]c2ccc(C(C)(C)C)cc32)cc1OC (stereo not drawn) [drawing 148] as the compound, how does the Ki read?
The Ki was 39.7 nM.

For Cc1c(Br)ccc2c3c([nH]c12)CNCC3, which Ki is on record?
The Ki was 32.4 nM.

Which Ki does the source give for CCCCC(=O)c1cccc2c1CC(NC)CC2 (stereo not drawn) here?
The Ki was 5150 nM.

Same assay, conditions: read-out: Ki Rat 5-HT2B; [3H]Serotonin; 5-HT2B cells; AVG

NCc1c[nH]c2ccc(Br)cc12 was tested. Which Ki did it give?
Its Ki is 39.3 nM.
